Laboratory results reported in patent US20060030711A1 (priority 2004, published 2006).
Read-outs that look alike come from different tables or passages of the source.

Assays:
[1] = thermodynamic stability of polymorphs (DSC comparison); format: physicochemical
Procedure: Pipindoxifene hydrochloride monohydrate can also exist as form I polymorph. Sample data for certain physical properties are compared for form I and form II polymorphs below in Table 2.
DSC measurements were carried out in both sealed pan and vented pan at a scan rate of 10° C./min from 25° C. to 200° C. under nitrogen purge using a Pyris I DSC from Perkin-Elmer.

[2] = tested on: tamoxifen-resistent MCF-7 breast cancer xenografts; settings: recent preclinical studies; cited from earlier work
[3] = tested on: tamoxifen-sensitive cells lines; settings: other studies; cited from earlier work
[4] = tested on: uterus; settings: tissue selective estrogenic effects; cited from earlier work

With `Cc1c(-c2ccc(O)cc2)n(Cc2ccc(OCCN3CCCCC3)cc2)c2ccc(O)cc12.Cl` [Form I, pipindoxifene hydrochloride monohydrate] the “thermodynamic stability of crystalline polymorph” value ([1]; form I versus form II, from Table 2 DSC data, hydrochloride monohydrate) was “thermodynamically more stable than form II”.
For `Cc1c(-c2ccc(O)cc2)n(Cc2ccc(OCCN3CCCCC3)cc2)c2ccc(O)cc12.Cl` [pipindoxifene, 2-(4-hydroxyphenyl)-3-methyl-1-[4-(2-piperidin-1-ylethoxy)-benzyl]-1H-indol-5-ol hydrochloride], the “growth of tamoxifen-resistant MCF-7 breast cancer xenografts” value [2] is listed as “inhibited the growth”, the “effectiveness in tamoxifen-sensitive cell lines” value [3] is listed as “effectiveness” and the uterotropic activity [4] is listed as “little or no uterotropic activity”.
With `Cc1c(-c2ccc(O)cc2)n(Cc2ccc(OCCN3CCCCC3)cc2)c2ccc(O)cc12.Cl` [form II, pipindoxifene hydrochloride monohydrate] the “thermodynamic stability of crystalline polymorph” value [1] was “Less thermodynamically stable”.
